Where two headings read alike, the source gives them in different places.
Columns and labels:
A204 cells = experiment: Cytotoxicity CellTiter-Glo; type: cell-based, human; settings: A204, Rhabdomyosarcoma
KM12 cells = settings: KM12, Colon
Source text: (§1) The methods that were used by the DTP were described on the DTP website: (https://dtp.nci.nih.gov/discovery_development/nci-60/methodology.htm).

NCI-H226 cells = settings: NCI-H226, Non-Small Cell Lung
Source text: as §1

U251 cells [1] = settings: U251, Central Nervous System
Source text: as §1

RXF 393 cells = settings: RXF 393, Renal
Source text: as §1

UO-31 cells = settings: UO-31, Renal
Source text: as §1

OVCAR-5 cells = settings: OVCAR-5, Ovarian
Source text: as §1

NCI-H460 cells = settings: NCI-H460, Non-Small Cell Lung
Source text: as §1

HCT-15 cells = settings: HCT-15, Colon
Source text: as §1

NCI-ADR-RES cells = settings: Ovarian
Source text: as §1

CAKL-1 cells = settings: CAKL-1, Renal
Source text: as §1

SK-MEL-2 cells = settings: SK-MEL-2, Melanoma
Source text: as §1

DU-145 cells = settings: DU-145, Prostate
Source text: as §1

HOP-62 cells = settings: HOP-62, Non-Small Cell Lung
Source text: as §1

UACC-62 cells = settings: UACC-62, Melanoma
Source text: as §1

SF-295 cells = settings: SF-295, Central Nervous System
Source text: as §1

HS 578T cells = settings: Breast
Source text: as §1

SK-MEL-28 cells = settings: SK-MEL-28, Melanoma
Source text: as §1

M14 cells = settings: M14, Melanoma
Source text: as §1

LOX IMVI cells = settings: Melanoma
Source text: as §1

HCC-2998 cells = settings: HCC-2998, Colon
Source text: as §1

ACHN cells = settings: Renal
Source text: as §1

SF-268 cells = settings: SF-268, Central Nervous System
Source text: as §1

[2] = Maximum tolerated dose study: clinical chemistry evaluation (blood cell parameters, Table 6)
Protocol: The mice used in MTD were given standard chow devoid of added folic acid (low folate diet) (See, Leamon C P et al., J. Pharmacol. Exp. Ther. 327: 918-925). […] Therefore we also designed a MTD study in mice treated with low folate diet. Food consumption on the day before injection (Day −1) was recorded and then it was monitored every other day. […] Blood for clinical chemistry was collected if possible. Liver, kidney and bone marrow were collected. One side of each tissue (except bone marrow) will be fixed in 4-10% formalin for future histology analysis, and the rest of tissue will be cut into pieces, snap frozen, and stored at −80° C. until analysis. Blood samples for clinical chemistry were centrifuged at 8000 rpm for 10 min at 4° C. within 1 hour of collection. Plasma was collected into 1.5 mL eppendorf tubes and stored at −80° C. until analysis. The measured parameters were alanine transaminase (ALT), aspartate transaminase (AST), alkaline phosphatase (ALP), total bilirubin, glucose, blood urea nitrogen (BUN), creatinine, and electrolytes. All experiments were housed in a virus-free, temperature controlled facility on a 12-h light-dark cycle.

MG-63 cells = experiment: Cytotoxicity CellTiter-Glo; type: cell-based, human; settings: MG-63, Osteosarcoma
U251 cells [3] = experiment: Cytotoxicity CellTiter-Glo; type: cell-based, human
[4] = read-out: IC50 (50% growth inhibition), 72 hours

[Pt(DMSO)methotrexate(Cl)] [SM-69]
GI50 (A204 cells): 3.9 ± 3 µM
IC50 (A204 cells; [4]): 3.9 ± 3 µM
Log10GI50 (KM12 cells): −5.17 M
Log10GI50 (NCI-H226 cells): −4.61 M
Log10GI50 (U251 cells [1]): −5.43 M
Log10GI50 (RXF 393 cells): −4.63 M
Log10GI50 (UO-31 cells): −4.92 M
Log10GI50 (OVCAR-5 cells): −4.61 M
Log10GI50 (NCI-H460 cells): −5.34 M
Log10GI50 (HCT-15 cells): −5.04 M
Log10GI50 (NCI-ADR-RES cells): −5.20 M
Log10GI50 (CAKL-1 cells): −5.23 M
Log10GI50 (SK-MEL-2 cells): −4.00 M
Log10GI50 (DU-145 cells): −5.18 M
Log10GI50 (HOP-62 cells): −4.26 M
Log10GI50 (UACC-62 cells): −4.90 M
Log10GI50 (SF-295 cells): −5.46 M
Log10GI50 (HS 578T cells): −4.00 M
Log10GI50 (SK-MEL-28 cells): −4.00 M
Log10GI50 (M14 cells): −5.41 M
Log10GI50 (LOX IMVI cells): −5.77 M
Log10GI50 (HCC-2998 cells): −4.95 M
Log10GI50 (ACHN cells): −5.12 M
Log10GI50 (SF-268 cells): −5.04 M
RDWa ([2]; 2.5 mpk i.v. once a week): 30.35
granulocytes (GRAN %) ([2]; 2.5 mpk i.v. once a week): 31.88%
granulocytes (GRAN) ([2]; 2.5 mpk i.v. once a week): 3.55
hematocrit (HCT) ([2]; 2.5 mpk i.v. once a week): 46.20
hemoglobin (HGB) ([2]; 2.5 mpk i.v. once a week): 16.20
lymphocytes (LYM %) ([2]; 2.5 mpk i.v. once a week): 60.70%
lymphocytes (LYM) ([2]; 2.5 mpk i.v. once a week): 6.65
mean corpuscular hemoglobin (MCH) ([2]; 2.5 mpk i.v. once a week): 15.65
mean corpuscular hemoglobin concentration (MCHC) ([2]; 2.5 mpk i.v. once a week): 35.08
mean corpuscular volume (MCV) ([2]; 2.5 mpk i.v. once a week): 44.68
mean platelet volume (MPV) ([2]; 2.5 mpk i.v. once a week): 6.68
monocytes (MONO %) ([2]; 2.5 mpk i.v. once a week): 7.43%
monocytes (MONO) ([2]; 2.5 mpk i.v. once a week): 0.83
platelet count (PLT) ([2]; 2.5 mpk i.v. once a week): 193.00
red blood cell count (RBC) ([2]; 2.5 mpk i.v. once a week): 10.34
red cell distribution width (RDW %) ([2]; 2.5 mpk i.v. once a week): 21.53%
white blood cell count (WBC) ([2]; 2.5 mpk i.v. once a week): 11.03
RDWa ([2]; 5 mpk i.v. once a week): 30.10
granulocytes (GRAN %) ([2]; 5 mpk i.v. once a week): 33.28%
granulocytes (GRAN) ([2]; 5 mpk i.v. once a week): 3.55
hematocrit (HCT) ([2]; 5 mpk i.v. once a week): 47.65
hemoglobin (HGB) ([2]; 5 mpk i.v. once a week): 17.08
lymphocytes (LYM %) ([2]; 5 mpk i.v. once a week): 58.70%
lymphocytes (LYM) ([2]; 5 mpk i.v. once a week): 6.38
mean corpuscular hemoglobin (MCH) ([2]; 5 mpk i.v. once a week): 15.73
mean corpuscular hemoglobin concentration (MCHC) ([2]; 5 mpk i.v. once a week): 35.83
mean corpuscular volume (MCV) ([2]; 5 mpk i.v. once a week): 43.95
mean platelet volume (MPV) ([2]; 5 mpk i.v. once a week): 6.83
monocytes (MONO %) ([2]; 5 mpk i.v. once a week): 8.03%
monocytes (MONO) ([2]; 5 mpk i.v. once a week): 0.88
platelet count (PLT) ([2]; 5 mpk i.v. once a week): 182.25
red blood cell count (RBC) ([2]; 5 mpk i.v. once a week): 10.86
red cell distribution width (RDW %) ([2]; 5 mpk i.v. once a week): 21.93%
white blood cell count (WBC) ([2]; 5 mpk i.v. once a week): 10.80
RDWa ([2]; 7.5 mpk i.v. once a week): 29.67
granulocytes (GRAN %) ([2]; 7.5 mpk i.v. once a week): 36.03%
granulocytes (GRAN) ([2]; 7.5 mpk i.v. once a week): 4.40
hematocrit (HCT) ([2]; 7.5 mpk i.v. once a week): 45.47
hemoglobin (HGB) ([2]; 7.5 mpk i.v. once a week): 16.23
lymphocytes (LYM %) ([2]; 7.5 mpk i.v. once a week): 56.53%
lymphocytes (LYM) ([2]; 7.5 mpk i.v. once a week): 7.07
mean corpuscular hemoglobin (MCH) ([2]; 7.5 mpk i.v. once a week): 15.63
mean corpuscular hemoglobin concentration (MCHC) ([2]; 7.5 mpk i.v. once a week): 35.73
mean corpuscular volume (MCV) ([2]; 7.5 mpk i.v. once a week): 43.80
mean platelet volume (MPV) ([2]; 7.5 mpk i.v. once a week): 6.40
monocytes (MONO %) ([2]; 7.5 mpk i.v. once a week): 7.43%
monocytes (MONO) ([2]; 7.5 mpk i.v. once a week): 0.93
platelet count (PLT) ([2]; 7.5 mpk i.v. once a week): 171.33
red blood cell count (RBC) ([2]; 7.5 mpk i.v. once a week): 10.38
red cell distribution width (RDW %) ([2]; 7.5 mpk i.v. once a week): 21.87%
white blood cell count (WBC) ([2]; 7.5 mpk i.v. once a week): 12.40
GI50 (MG-63 cells): 2.4 ± 1.4 µM
IC50 (MG-63 cells; [4]): 2.4 ± 1.4 µM
IC50 (U251 cells [3]; read-out: IC50 (50% growth inhibition), U251, Brain, 72 hours): 4 ± 4.5 µM
IC50 (U251 cells [3]; read-out: IC50 ± S.D. (50% growth inhibition), U251, Brain - High grade, + 1 mM Folic Acid): 6.1 ± 0.29 µM
IC50 (U251 cells [3]; read-out: IC50 ± S.D. (50% growth inhibition), U251, Brain - High grade, two independent experiments): 0.25 ± 0.02 µM
